# Data reported in publication PMC9504208, “Comprehensive Study of Antiretroviral Drug Permeability at the Cervicovaginal Mucosa via an In Vitro Model” (Pharmaceutics, 2022).
# Read-outs that look alike come from different tables or passages of the source.
# Assays:
# [1] = Bi-directional permeability (Papp) across HEC-1A dual chamber (Transwell) barrier model; format: in vitro ADME; conditions: human
# Method: The apical chambers of 12-well polycarbonate and polyester systems (Corning Costar Corp, Cambridge, UK) were seeded with different densities of HEC-1A cells in 500 µL of the medium while 1500 µL culture medium was added to the basolateral chamber. -Medium in both chambers was changed every 48–72 h.
# [2] = test system: HEC-1A cell layers
# Method: (§5) All transport experiments were undertaken over a 2-h period (unless stated) at 37 °C in HBSS supplemented with 1% HEPES buffer (Sigma-Aldrich) at pH 7.4 as reported [22]. HBSS was used to prevent the drug from binding to albumin present in cell culture media. All solutions were warmed to 37 °C and experiments were performed on a heated orbital shaker set at 50 RPM. […] Prior to the initiation of the drug transport experiments, TEER was measured. Cell layers were then washed twice with pre-warmed HBSS+1%HEPES transport buffer and equilibrated in the same solution for 30 min at 37 °C. […] The experiment was initiated when either the donor or receiver solutions were added to the respective compartments. Following the addition of donor solution, 20 µL samples were taken immediately from donor and receiver compartments, T = 0 (for assessment of initial concentration and background radioactivity, respectively). Transwells® were then placed on an orbital shaker set at 50 RPM. Samples, either 200 µL (apical) or 600 µL (basolateral), were taken from the receiver compartments at time points T = 30, T = 60, T = 90 and T = 120 and added to polyethylene liquid scintillation vials. Samples were taken in triplicate and replaced with equivalent volumes of the receiver solution. After final sampling, TEER was measured to confirm that there was no disruption to the epithelial barrier during the experimental procedure. Radioactive samples were mixed with 4 mL of scintillation fluid (Fisher Scientific, Waltham, MA, USA) and analysed using a liquid scintillation counter (Beckman Coulter, Brea, CA, USA). The semipermeable membranes of the Transwell® inserts were cut and also placed into scintillation vials for mass balance measurements.
# [3] = in vitro; conditions: human, pH 7.4
# Method: as §5
# [4] = test system: drug transporter mRNA expression in HEC-1A cells; assay: Drug transporter mRNA expression (RT-qPCR) in stimulated HEC-1A cells; format: cell-based, human; conditions: for Change in expression of drug transporters (panel of 17): 72 h stimulation
# Method: (§1) Control was 0.1% DMSO with no drug. Cytokines were reconstituted in sterile and distilled water and added individually to cell cultures at the following concentrations: TNF-α (200 pg/mL), IL-1β (8 ng/mL), IL-6 (5 ng/mL) and IL-8 (100 ng/mL) were. […] Cells were stimulated for either drugs, cytokines or hormones for 72 h, before harvesting by centrifugation at 300× g for 10 min at 4 °C. For Lactobacillus crispatus a final MoI of 10 was used (10:1, bacterial cells:mammalian cell ratio) for co-culture in both HEC-1A and VK2/E6E7 cell lines. For Candida albicans, a final MoI of 1 for HEC-1A cells and 0.25 for VK2/E6E7 cells was used. Cells were incubated with fungal cells at 37 °C/5% CO2 for 24 h. All cell line stimulation experiments were conducted as a minimum of three biological repeats.
# (§2) RNA extraction was performed using the RNeasy® Mini Kit (Qiagen, Manchester, UK). Cells were lysed by suspension in 600 μL of RLT Buffer with 1% β-mercaptoethanol (Sigma-Aldrich) and mechanical lysis into a QIAshredder (Qiagen). After the addition of 70% ethanol, the solution was loaded onto RNeasy columns for RNA purification as per the manufacturer’s instructions. DNase treatment was 15 min at room temperature. RNA was eluted from the columns with 30 μL of RNase-free ddH2O. Tapestation analysis was performed using an Agilent 2200 Tapestation system to determine the integrity of the RNA.
# (§3) Synthesis of cDNA was performed using a Superscript® VILO™ kit (Life Technologies, Paisley, UK). Reverse transcription was performed at 25 °C for 10 min, 42 °C for 60 min and 85 °C for 5 min. The cDNA was then stored at −20 °C until RT-PCR assays.
# (§4) SYBRgreen® PrecisionTM 2× qPCR Mastermix with ROX quencher (Primer Design, Southampton, UK) was used for all RT-qPCR assays. Individual primers were designed to target the HPRT1 and RPLP0 housekeeper genes (selected from an initial panel based on SD scores as a measure of the consistency of expression amongst all samples) in addition to seventeen ARV-associated drug transporters (9 ABC transporters and 8 SLC transporters) replicating the system contained in the TaqMan® 96-well Drug Transporter Array system (Life Technologies, Paisley, UK). Real-time quantitative PCR was performed using the 7900HT Fast Real-Time PCR system and data was analysed using the SDS 2.4 software (Applied Biosystems, Waltham, MA, USA). Cycling conditions were: 95 °C for 5 min, followed by 40 cycles of denaturation at 95 °C for 10 s, annealing at 60 °C for 10 s and extension at 72 °C for 10 s. Relative transcript levels in drug-stimulated cells were determined using the comparative Ct method (ΔΔCt method). Fold-change values of ±2–3 were considered minor, ±3–5 as moderate and >±5 as high.
# [5] = test system: VK2/E6E7 cells; assay: Intracellular accumulation of digoxin in cytokine-stimulated VK2/E6E7 cells; format: cell-based, human; conditions: 5 µM digoxin, 1 h; after cytokine stimulation
# Method: A 500 μL sample from each well was stored and the remainder of the buffer was aspirated from the plates. The wells were then washed twice with ice-cold PBS to stop any further uptake of the drug. To each well, 500 μL of ddH2O was added and cells were removed using a cell scraper. The cell suspension was then transferred to individual tubes for mechanical cell lysis using a 21-gauge needle followed by a freeze-thaw cycle at -80 °C. Protein content for normalisation calculations was measured via a bicinchoninic acid assay. The solution was then centrifuged at 14,000× g for 15 min and the supernatants were stored at -80 °C until analysis by LC-MS/MS. Samples were centrifuged at 14,800 rpm for 5 min to remove cell debris. […] Analysis was performed on a Thermo Surveyor TSQ Quantum system using electrospray ionisation in positive ion mode. Samples (5 μL) were applied to a C18 column (Gemini 3μ, 150 × 3.0 mm, Phenomenex, Macclesfield, UK) maintained at 40 °C. […] The flow rate for both methods was 350 μL/min. […] Cytokines were reconstituted in sterile and distilled water and added individually to cell cultures at the following concentrations: TNF-α (200 pg/mL), IL-1β (8 ng/mL), IL-6 (5 ng/mL) and IL-8 (100 ng/mL) were. […] Cells were stimulated for either drugs, cytokines or hormones for 72 h, before harvesting by centrifugation at 300× g for 10 min at 4 °C. […] All cell line stimulation experiments were conducted as a minimum of three biological repeats.
# [6] = test system: drug transporter mRNA expression in VK2/E6E7 cells; assay: Drug transporter mRNA expression (RT-qPCR) in stimulated VK2/E6E7 cells; format: cell-based, human; conditions: for Expression of uptake transporters OATP8 and CNT3 / P-gp mRNA level: 72 h cytokine stimulation
# Method: as §1, §2, §3, §4
# [7] = test system: HEC-1A cells; assay: Cytokine production of HEC-1A cells stimulated with PAMPs (Luminex); format: cell-based, human; conditions: for Pro-inflammatory cytokine production: 24 h stimulation
# Method: HEC-1A cells were stimulated with different PAMPs (pam 3CSK4, lipoteichoic acid, poly(I:C), Escherichia coli lipopolysaccharide, FSL-1, flagellin, imiquimod, zymosan) (InvivoGen, San Diego, CA, USA) diluted in cell culture media with incubation at 37 °C in 5% CO2 for 24 h. PAMPs were titrated to determine the optimal concentration for cytokine stimulation. Blank samples contained media only. After 24 h, the supernatant was collected for cytokine detection. Cytokine levels were determined using a Magnetic Luminex® Performance Assay kit (R&D Systems, Minneapolis, MN, USA) following the manufacturer’s instructions. Analyte-specific antibodies were pre-coated onto colour-coded microparticles and detection was carried out with a biotinylated antibody cocktail specific to the target cytokines and a streptavidin-phycoerythrin conjugate. Samples were resuspended in 100 µL of Washing Buffer and measured for a phycoerythrin-derived signal using a Luminex® 100 instrument.
# [8] = test system: HEC-1A monolayer; assay: Darunavir transfer across low-pH-adapted HEC-1A monolayers at apical pH 7.5 or 5.5 (LC-MS/MS); format: in vitro ADME, human; conditions: MK571 (50 µM) in donor compartment; apical pH 5.5
# Method: Cell lines were from American Type Culture Collection (ATCC, Manassas, VA, USA).
# Samples were centrifuged at 14,800 rpm for 5 min to remove cell debris. […] Analysis was performed on a Thermo Surveyor TSQ Quantum system using electrospray ionisation in positive ion mode. Samples (5 μL) were applied to a C18 column (Gemini 3μ, 150 × 3.0 mm, Phenomenex, Macclesfield, UK) maintained at 40 °C. […] Digoxin and digitoxigenin were resolved using gradient elution with a mobile phase consisting of A: 30 mM ammonium formate, pH 3.4 and B: methanol; 70% B was increased to 100% B over 3 min before returning to initial conditions for 3 min re-equilibration for a total run time of 6 min. The flow rate for both methods was 350 μL/min.
# As described above, HEC-1A cells were cultured under conditions that allowed adaptation to lower pH by incremental reduction of pH of the medium from 7.4 to 5.5. […] The pH of the medium in the basal compartment was pH 7.5 for all experiments whereas medium at pH 7.5 or pH 5.5 was added to apical compartments. Non-adapted cell cultures in pH 7.5 medium both in the apical and basal compartments were included as controls.
# [9] = test system: HEC-1A cells; assay: Cell-associated drug and distribution between apical and basolateral compartments after absorptive permeability assay; format: in vitro ADME, human;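 note: transwell transport run over 2 h at 37 °C, radiolabelled drug quantified by liquid scintillation counting, with insert membranes also counted for mass balance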
# Method: as §5
# [10] = test system: HEC-1A barrier model; assay: Permeability of labelled drug across HEC-1A model on coadministration with a second ARV; format: in vitro ADME, human; conditions: labelled drug 10 µM
# Method: All transport experiments were undertaken over a 2-h period (unless stated) at 37 °C in HBSS supplemented with 1% HEPES buffer (Sigma-Aldrich) at pH 7.4 as reported [22]. HBSS was used to prevent the drug from binding to albumin present in cell culture media. All solutions were warmed to 37 °C and experiments were performed on a heated orbital shaker set at 50 RPM. […] Prior to the initiation of the drug transport experiments, TEER was measured. Cell layers were then washed twice with pre-warmed HBSS+1%HEPES transport buffer and equilibrated in the same solution for 30 min at 37 °C. […] The experiment was initiated when either the donor or receiver solutions were added to the respective compartments. Following the addition of donor solution, 20 µL samples were taken immediately from donor and receiver compartments, T = 0 (for assessment of initial concentration and background radioactivity, respectively). Transwells® were then placed on an orbital shaker set at 50 RPM. […] After final sampling, TEER was measured to confirm that there was no disruption to the epithelial barrier during the experimental procedure. Radioactive samples were mixed with 4 mL of scintillation fluid (Fisher Scientific, Waltham, MA, USA) and analysed using a liquid scintillation counter (Beckman Coulter, Brea, CA, USA). […]
# [11] = test system: HEC-1A cell layers; assay: Permeability across HEC-1A cell layers stimulated with poly(I:C); conditions: p > 0.05, ANOVA
# Method: as §5
# [12] = 72 h hormone stimulation, vs ethanol control, increased
compound,measurement,setting,value
OC[C@@H](O)[C@@H](O)[C@H](O)[C@H](O)CO [mannitol],Papp A→B at 2 h,"[1]; pH 7.4, Absorptive Papp of mannitol, 1% DMSO in donor compartment (initial dapivirine assay)",2.5 to 2.61 ×10⁻⁶ cm/s
same,Papp A→B at 2 h,"[1]; pH 7.4, Absorptive Papp of mannitol, paracellular marker in the tenofovir permeability assay",2.09 to 3.1 ×10⁻⁶ cm/s
same,Papp B→A at 2 h,"[1]; pH 7.4, Secretory Papp of mannitol, 1% DMSO in donor compartment (initial dapivirine assay)",5.1 to 6.81 ×10⁻⁶ cm/s
same,Papp B→A at 2 h,"[1]; pH 7.4, Secretory Papp of mannitol, paracellular marker in the tenofovir permeability assay",2.7 to 2.85 ×10⁻⁶ cm/s
same,Papp at 2 h,"[1]; pH 7.4, mannitol measured simultaneously in drug permeability assays, read-out: Papp (barrier integrity control)",< 4 ×10⁻⁶ cm/s
same,Papp,[2],2.23 to 2.47 ×10⁻⁶ cm/s
same,"Papp at 2 h, 10 µM",[3],1.43 to 2.17 ×10⁻⁶ cm/s
IL-8: pro-inflammatory cytokine,Change in expression of drug transporters (panel of 17),[4],No changes
TNF-α,Effect on intracellular uptake of digoxin,[5],significantly reduced
same,Change in expression of drug transporters (panel of 17),[4],No changes
same,Expression of uptake transporters OATP8 and CNT3,[6],induce the expression
same,P-gp mRNA level,[6],increased
poly(I:C),Pro-inflammatory cytokine production,[7],"induced production of IL-6, IL-8, IL-1α, GM-CSF and TNF-α"
same,Optimum concentration for cytokine stimulation,[7]; titration 1–50 µg/ml,25 µg/mL
IL-1β: pro-inflammatory cytokine,Effect on intracellular uptake of digoxin,[5],significantly reduced
same,Change in expression of drug transporters (panel of 17),[4],No changes
same,Expression of uptake transporters OATP8 and CNT3,[6],induce the expression
same,P-gp mRNA level,[6],increased
IL-6: pro-inflammatory cytokine,Effect on intracellular uptake of digoxin,[5],not
same,Change in expression of drug transporters (panel of 17),[4],No changes
same,Expression of uptake transporters OATP8 and CNT3,[6],induce the expression
same,P-gp mRNA level,[6],increased
C[C@]12CC[C@@H]3c4ccc(O)cc4CC[C@H]3[C@@H]1CC[C@@H]2O [β-estradiol],"BCRP mRNA expression, fold-change",[4]; [12],2.64 ± 0.44 fold
same,"CNT3 mRNA expression, fold-change",[6]; [12],3.70 ± 1.43 fold
same,"MRP3 mRNA expression, fold-change",[6]; [12],2.14 ± 0.30 fold
flagellin,Pro-inflammatory cytokine production,[7],"stimulated production of IL-8, GM-CSF and TNF-α"
CN(C)C(=O)CCSC(SCCC(=O)O)c1cccc(/C=C/c2ccc3ccc(Cl)cc3n2)c1 (stereo not shown) [MK571],Effect on absorptive transfer of darunavir,[8],reduced the absorptive transfer of darunavir to the level observed at pH 7.5
"C[C@H](Cn1cnc2c(N)ncnc21)OCP(=O)(O)O [tenofovir, Tenofovir]",Papp A→B at 2 h,"[1]; pH 7.4, apical to basolateral, over concentration range (tenofovir 0.1–100 µM; darunavir 0.1–20 µM, 0.01% DMSO), read-out: Absorptive permeability Papp",1.76 to 2.06 ×10⁻⁶ cm/s
same,Papp B→A at 2 h,"[1]; pH 7.4, basolateral to apical, over concentration range (tenofovir 0.1–100 µM; darunavir 0.1–20 µM, 0.01% DMSO), read-out: Secretory permeability Papp",1.46 to 1.64 ×10⁻⁶ cm/s
same,efflux ratio at 2 h,"[1]; pH 7.4, over concentration range tested, read-out: Efflux ratio (secretory/absorptive)",0.77 to 0.83
same,% Drug Distribution Apical,[9]; 0.1 μM,97.03 ± 0.28%
same,% Drug Distribution Basolateral,[9]; 0.1 μM,2.63 ± 0.25%
same,% Drug Distribution Cell-Associated,[9]; 0.1 μM,0.34 ± 0.06%
same,% Drug Distribution Apical,[9]; 1 μM,96.85 ± 0.29%
same,% Drug Distribution Basolateral,[9]; 1 μM,2.73 ± 0.24%
same,% Drug Distribution Cell-Associated,[9]; 1 μM,0.42 ± 0.08%
same,% Drug Distribution Apical,[9]; 10 μM,96.91 ± 0.27%
same,% Drug Distribution Basolateral,[9]; 10 μM,2.79 ± 0.25%
same,% Drug Distribution Cell-Associated,[9]; 10 μM,0.3 ± 0.06%
same,% Drug Distribution Apical,[9]; 100 μM,96.59 ± 0.41%
same,% Drug Distribution Basolateral,[9]; 100 μM,2.99 ± 0.36%
same,% Drug Distribution Cell-Associated,[9]; 100 μM,0.42 ± 0.17%
same,Recovery from the apical compartment after absorptive permeability assays,"[9]; % of initial concentration, no Poloxamer",96–97%
same,Cell-associated drug (HEC-1A cells),[9]; after absorptive permeability assays,≤ 0.5%
same,Absorptive permeability on coadministration with dapivirine,[10]; dapivirine 0–10 µM,not altered
same,Absorptive or secretory permeability on coadministration with darunavir,[10]; darunavir 0–10 µM,did not significantly alter
same,Papp,[2],1.45 ± 0.21 ×10⁻⁶ cm/s
same,"Papp at 2 h, 10 µM",[3],1.06 ± 0.05 ×10⁻⁶ cm/s
same,"Difference in Papp (A-B or B-A), poly(I:C)-stimulated vs unstimulated cell layers",[11],no significant differences
